# Legend:
# [1] = target: Cytochrome P450 2D6 (Homo sapiens, UniProt P10635); assay: Inhibition of human recombinant CYP2D6; format: ADME
# [2] = Inhibition of voltage-gated sodium channel in Wistar rat forebrain synaptosomes assessed as inhibition of [14C]guanidium ion flux; format: subcellular, Brain
# [3] = system: Hippocampus; assay: Neuroprotective activity in Wistar rat hippocampal slices assessed as ATP concentration at 50 uM relative to tetrodotoxin; format: functional
# [4] = target: T1, Cytochrome P450 1A2 (Homo sapiens, UniProt P05177); assay: Inhibition of human recombinant CYP1A2; format: ADME
# T1 sequence (P05177 whole entry): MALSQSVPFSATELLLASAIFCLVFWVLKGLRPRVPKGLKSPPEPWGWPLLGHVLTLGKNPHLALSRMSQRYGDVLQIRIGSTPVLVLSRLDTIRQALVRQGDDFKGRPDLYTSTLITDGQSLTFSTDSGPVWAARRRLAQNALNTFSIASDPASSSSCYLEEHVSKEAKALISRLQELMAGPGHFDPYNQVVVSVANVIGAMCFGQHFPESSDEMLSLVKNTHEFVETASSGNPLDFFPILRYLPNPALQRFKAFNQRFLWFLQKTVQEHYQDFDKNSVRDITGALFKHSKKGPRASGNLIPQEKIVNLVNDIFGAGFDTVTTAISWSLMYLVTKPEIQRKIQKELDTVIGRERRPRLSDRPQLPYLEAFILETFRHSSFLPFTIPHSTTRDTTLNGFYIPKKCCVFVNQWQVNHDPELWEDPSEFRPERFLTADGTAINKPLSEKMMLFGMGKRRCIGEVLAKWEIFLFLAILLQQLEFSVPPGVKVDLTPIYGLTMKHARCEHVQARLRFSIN
# [5] = Displacement of [3H]BW202W92 from voltage-gated sodium channel in Wistar rat forebrain synaptosomes by liquid scintillation counting; format: subcellular, Brain
# Sequence of Cytochrome P450 2D6 (P10635 whole entry): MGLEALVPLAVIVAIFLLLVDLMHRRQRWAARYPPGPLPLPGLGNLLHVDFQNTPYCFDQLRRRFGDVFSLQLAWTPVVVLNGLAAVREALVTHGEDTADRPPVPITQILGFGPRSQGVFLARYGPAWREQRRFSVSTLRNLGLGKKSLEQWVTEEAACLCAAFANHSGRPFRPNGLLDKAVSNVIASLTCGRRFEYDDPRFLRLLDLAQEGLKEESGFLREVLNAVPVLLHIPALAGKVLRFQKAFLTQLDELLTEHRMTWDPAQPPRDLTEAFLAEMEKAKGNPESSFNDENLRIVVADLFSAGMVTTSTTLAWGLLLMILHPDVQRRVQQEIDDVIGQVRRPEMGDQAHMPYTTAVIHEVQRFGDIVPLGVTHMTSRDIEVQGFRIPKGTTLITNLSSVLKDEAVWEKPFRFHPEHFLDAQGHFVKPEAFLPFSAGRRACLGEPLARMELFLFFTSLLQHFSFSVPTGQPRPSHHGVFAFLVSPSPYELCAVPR
Compound,IC50 [1],IC50 [2],Activity [3],IC50 [4],IC50 [5]
NCc1noc(-c2nn(Cc3ccc(C(N)=O)cc3)c3ccccc23)n1,1.3 µM,195 µM,8%,–,–
NCc1noc(-c2nn(CCc3ccccc3)c3ccccc23)n1,1.32 µM,35 µM,49%,0.034 µM,–
CC(C)(C)OC(=O)NCc1noc(-c2n[nH]c3ccccc23)n1,> 10 µM,96 µM,0%,0.79 µM,–
CC(=O)n1nc(-c2nc(CN)no2)c2ccccc21,> 10 µM,> 300 µM,24%,–,–
Cc1cc(C)cc(Cn2nc(-c3nc(CN)no3)c3ccccc32)c1,3.73 µM,15 µM,43%,0.062 µM,–
NCc1noc(-c2c3ccccc3nn2CCc2ccccc2)n1,4.27 µM,19 µM,54%,0.36 µM,–
Cc1cccc(Cn2nc(-c3nc(CNC(=O)OC(C)(C)C)no3)c3ccccc32)c1,20 µM,1 µM,0%,–,–
NCc1noc(-c2c3ccccc3nn2Cc2cccc(Cl)c2)n1,–,24 µM,17%,–,110 µM
COc1ccc(S(=O)(=O)n2nc(-c3nc(CN)no3)c3ccccc32)cc1OC,2.9 µM,102 µM,2%,> 10 µM,–
Cc1cccc(Cn2nc(-c3nc(CN)no3)c3ccccc32)c1,3.96 µM,28 µM,45%,0.084 µM,–
CC(C)(C)OC(=O)NCc1noc(-c2nn(Cc3ccc4c(c3)OCO4)c3ccccc23)n1,3.3 µM,1 µM,0%,4.86 µM,–
CC(C)(C)OC(=O)NCc1noc(-c2nn(Cc3ccc(C(N)=O)cc3)c3ccccc23)n1,> 10 µM,24 µM,29%,–,–
CC(C)(C)OC(=O)NCc1noc(-c2nn(Cc3ccc(-c4cn[nH]c4)cc3)c3ccccc23)n1,> 10 µM,16 µM,20%,–,–
NCc1noc(-c2nn(Cc3ccc(-c4cn[nH]c4)cc3)c3ccccc23)n1,–,63 µM,26%,–,–
CC(=O)Nc1ccc(Cn2nc(-c3nc(CN)no3)c3ccccc32)cc1,–,309 µM,10%,–,–
CC(=O)Nc1ccc(Cn2nc(-c3nc(CNC(=O)OC(C)(C)C)no3)c3ccccc32)cc1,13 µM,15 µM,47%,5.92 µM,–
O=C(NCc1noc(-c2nn(Cc3ccccc3)c3ccccc23)n1)c1ccccc1,–,18 µM,23%,–,–
NCc1noc(-c2c3ccccc3nn2Cc2ccc3c(c2)OCO3)n1,–,34 µM,55%,–,–
COc1cc(Cn2nc(-c3nc(CN)no3)c3ccccc32)cc(OC)c1OC,–,178 µM,28%,–,–
CC(=O)n1nc(-c2nc(CNC(=O)OC(C)(C)C)no2)c2ccccc21,> 10 µM,132 µM,4%,–,–
NCc1noc(-c2nn(Cc3cccc(Cl)c3)c3ccccc23)n1,–,14 µM,50%,–,–
COc1ccc(S(=O)(=O)n2nc(-c3nc(CNC(=O)OC(C)(C)C)no3)c3ccccc32)cc1OC,20 µM,2 µM,10%,–,–
NCc1noc(-c2nn(Cc3cc(F)cc(F)c3F)c3ccccc23)n1,–,35 µM,59%,–,–
CC(C)(C)OC(=O)NCc1noc(-c2nn(Cc3cccc(OC(F)(F)F)c3)c3ccccc23)n1,–,0.9 µM,0%,–,–
Cc1ccc(Cn2nc(-c3nc(CNC(=O)OC(C)(C)C)no3)c3ccccc32)cc1,–,2 µM,0%,–,–
NCc1noc(-c2n[nH]c3ccccc23)n1,1 µM,2190 µM,10%,0.21 µM,–
NCc1noc(-c2nn(Cc3ccccc3Cl)c3ccccc23)n1,–,20 µM,43%,–,–
